Experimental data from patent publication US20180099931A1 (AbbVie S.à.r.l., priority 2016, published 2018).
pEC50: −log10 of the molar value. Like-named read-outs stand apart in the source and are kept apart here.

Molecular target: T1, F508delCFTR (Homo sapiens, UniProt P13569, DEL508-508)
T1 construct: expressed in transfected cells; host or cells: CFBE41o- human lung-derived epithelial cells (CFBE4lo-F508delCFTR-HRP), doxycycline-inducible
Assay: Cell Surface Expression-Horse Radish Peroxidase (CSE-HRP) Assay;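 as to Maximum % activity (with co-corrector): co-corrector and positive control are both the same reference corrector at 2 µM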;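 as to Maximum % activity (without co-corrector): percent of the 2 µM on-plate positive control corrector response above DMSO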
Format: cell-based
Conditions: for Emax / Maximum % activity (with co-corrector): maximum at any tested concentration, normalized to on-plate positive control; for Emax: read-out: Maximum % activity (without co-corrector)
Experimental: Cell Surface Expression-Horse Radish Peroxidase (CSE-HRP) Assay;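 as to Maximum % activity (with co-corrector): co-corrector and positive control are both the same reference corrector at 2 µM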;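 as to Maximum % activity (without co-corrector): percent of the 2 µM on-plate positive control corrector response above DMSO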
The development was achieved by expressing the F508delCFTR mutation along with a horseradish peroxidase (HRP) in the fourth exofacial loop, and then measuring the HRP activity using luminescence readout from these cells, CFBE4lo-F508delCFTR-HRP, that were incubated overnight with the test corrector compounds, either without or with the co-corrector. […] The test compounds were then added either without or with a co-corrector at the required concentrations and further incubated for 18-24 hours at 33° C. The highest concentration tested was 20 μM with an 8-point concentration response curve using a 3-fold dilution in both the test compound without or with the co-corrector. Three replicate plates were run to determine one EC50. All plates contained negative controls (dimethyl sulfoxide, DMSO) and positive control (2 μM of 3-[(2R,4R)-4-({[1-(2,2-difluoro-1,3-benzodioxol-5-yl)cyclopropyl]carbonyl}amino)-7-methoxy-3,4-dihydro-2H-chromen-2-yl]benzoic acid) as well as on-plate concentration response of the positive control. […] The raw counts from the experiment were analyzed using Accelrys® Assay Explorer v3.3.
1−[3*SDPositive Control+3*SDNegative Control/Absolute(MeanPositive Control−MeanNegative Control)]
wherein “SD” is standard deviation.
The % activity measured at each of the 8 test concentrations of the test compound added either without or with a co-corrector (2 μM of 3-[(2R,4R)-4-({[1-(2,2-difluoro-1,3-benzodioxol-5-yl)cyclopropyl]carbonyl}amino)-7-methoxy-3,4-dihydro-2H-chromen-2-yl]benzoic acid) was normalized to the on-plate positive control using the following formulae:
% activity(Test compound without co-corrector)=[(test compound without co-corrector response−DMSO response)/(positive control response−DMSO response)]*100
% activity(Test compound with co-corrector)=[(test compound with co-corrector response−DMSO response)/(positive control response−DMSO response)]*100
The maximum % activity achieved for the test compound either without or with a co-corrector at any tested concentration is presented in Table 4 along with the respective EC50's calculated using the following general sigmoidal curve with variable Hill slope equation (described as Model 42 in the Accelrys® Assay Explorer v3.3 software):
General sigmoidal curve with concentration, response, top, bottom, EC50 and Hill slope. This model describes a sigmoidal curve with an adjustable baseline, a. The equation can be used to fit curves where response is either increasing or decreasing with respect to the independent variable, “x”.
“x” is a concentration of drug under test. “y” is the response. “a” is the maximum response, and “d” is the minimum response “c” is the inflection point (EC50) for the curve. That is, “y” is halfway between the lower and upper asymptotes when x=c. “b” is the slope-factor or Hill coefficient. The sign of b is positive when the response increases with increasing dose and is negative when the response decreases with increasing dose (inhibition).

[1] = test compound without co-corrector
[2] = test compound without co-corrector, read-out: EC50 (without co-corrector)
[3] = with co-corrector (2 μM of 3-[(2R,4R)-4-({[1-(2,2-difluoro-1,3-benzodioxol-5-yl)cyclopropyl]carbonyl}amino)-7-methoxy-3,4-dihydro-2H-chromen-2-yl]benzoic acid)
[4] = with co-corrector (2 μM of 3-[(2R,4R)-4-({[1-(2,2-difluoro-1,3-benzodioxol-5-yl)cyclopropyl]carbonyl}amino)-7-methoxy-3,4-dihydro-2H-chromen-2-yl]benzoic acid), read-out: EC50 (with co-corrector)
[5] = CSE-HRP, test compound without co-corrector, read-out: EC50 (without co-corrector)
[6] = CSE-HRP, with co-corrector (2 μM of 3-[(2R,4R)-4-({[1-(2,2-difluoro-1,3-benzodioxol-5-yl)cyclopropyl]carbonyl}amino)-7-methoxy-3,4-dihydro-2H-chromen-2-yl]benzoic acid), read-out: EC50 (with co-corrector)
[7] = CSE-HRP, with co-corrector (2 μM)

T1 sequence (P13569 with tags, fused parts or gaps DEL508-508): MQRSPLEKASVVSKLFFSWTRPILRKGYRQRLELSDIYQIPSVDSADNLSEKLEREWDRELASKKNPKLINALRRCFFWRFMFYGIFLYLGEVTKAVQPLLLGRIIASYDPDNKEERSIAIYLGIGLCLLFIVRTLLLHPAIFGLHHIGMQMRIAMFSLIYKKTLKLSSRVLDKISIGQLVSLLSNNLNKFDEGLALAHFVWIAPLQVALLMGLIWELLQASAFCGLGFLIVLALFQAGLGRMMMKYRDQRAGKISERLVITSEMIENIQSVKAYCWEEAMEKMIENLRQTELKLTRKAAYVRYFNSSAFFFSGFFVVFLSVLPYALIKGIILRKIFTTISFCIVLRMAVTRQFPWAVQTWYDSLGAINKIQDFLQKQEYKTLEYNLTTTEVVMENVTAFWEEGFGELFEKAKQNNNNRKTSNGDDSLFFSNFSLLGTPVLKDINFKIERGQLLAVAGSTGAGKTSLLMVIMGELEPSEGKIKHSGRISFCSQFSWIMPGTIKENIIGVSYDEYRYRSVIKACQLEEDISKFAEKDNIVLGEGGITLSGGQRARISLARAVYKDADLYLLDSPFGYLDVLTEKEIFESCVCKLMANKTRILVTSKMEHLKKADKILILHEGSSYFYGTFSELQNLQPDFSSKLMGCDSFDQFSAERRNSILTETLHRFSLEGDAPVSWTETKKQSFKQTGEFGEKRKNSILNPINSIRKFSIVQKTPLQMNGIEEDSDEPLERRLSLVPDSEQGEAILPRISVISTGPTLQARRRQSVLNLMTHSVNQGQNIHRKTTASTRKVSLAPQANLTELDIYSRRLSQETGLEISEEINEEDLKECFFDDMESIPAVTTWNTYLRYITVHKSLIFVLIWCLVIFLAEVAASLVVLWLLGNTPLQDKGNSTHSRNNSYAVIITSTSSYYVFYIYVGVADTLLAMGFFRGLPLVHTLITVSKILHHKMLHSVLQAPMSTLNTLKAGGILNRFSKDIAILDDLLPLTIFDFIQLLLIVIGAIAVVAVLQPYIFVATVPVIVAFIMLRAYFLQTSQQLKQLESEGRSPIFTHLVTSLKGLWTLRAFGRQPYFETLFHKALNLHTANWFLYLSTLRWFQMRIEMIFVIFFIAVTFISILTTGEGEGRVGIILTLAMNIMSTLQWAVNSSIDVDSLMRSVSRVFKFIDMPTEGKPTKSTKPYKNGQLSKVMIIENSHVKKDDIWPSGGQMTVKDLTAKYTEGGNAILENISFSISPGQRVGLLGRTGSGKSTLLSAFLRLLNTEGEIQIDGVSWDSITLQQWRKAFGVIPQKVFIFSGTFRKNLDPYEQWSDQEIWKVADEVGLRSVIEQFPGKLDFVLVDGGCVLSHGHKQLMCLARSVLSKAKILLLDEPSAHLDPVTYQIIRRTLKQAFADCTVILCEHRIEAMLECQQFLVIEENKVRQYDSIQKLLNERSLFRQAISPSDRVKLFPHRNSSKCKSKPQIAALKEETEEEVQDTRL

Row | SMILES | Emax [1] | pEC50 [2] | Maximum % activity (with co-corrector) [3] | pEC50 [4] | Maximum % activity (with co-corrector) (with co-corrector (2 μM)) | Emax (without co-corrector) | pEC50 [5] | pEC50 [6] | Maximum % activity (with co-corrector) [7] | Emax (CSE-HRP, without co-corrector)
1 | CC(C)(C)[C@@H]1[C@@H](NCc2cc(C(F)(F)F)cnc2OCCO)[C@@H](c2ccccc2)N(C(=O)C2CCCCC2)[C@H]1C(=O)O (racemic) [III-87] | < 100% | < 5.00 | ++ (≥150 and <350) | 5.00 to 6.00 |  |  |  |  |  | 
2 | COc1ccc(Cl)cc1CN[C@@H]1[C@@H](C(C)(C)C)[C@H](C(=O)O)N(C(=O)C2CCCCC2)[C@@H]1c1cccnc1N(C)C (racemic) [III-94] | 100 to 200% | 5.00 to 6.00 |  | 5.00 to 6.00 | +++ (≥350) |  |  |  |  | 
3 | CC(C)(C)[C@@H]1[C@@H](NCc2cc(C(F)(F)F)ccc2OCCCF)[C@@H](c2ccccc2)N(C(=O)C2CCCCC2)[C@H]1C(=O)O (racemic) [III-85] | < 100% | < 5.00 | ++ (≥150 and <350) | 5.00 to 6.00 |  |  |  |  |  | 
4 | COc1ncc(C2CCC2)cc1CN[C@H]1[C@H](C(C)(C)C)[C@@H](C(=O)O)N(C(=O)[C@@H]2CCCCO2)[C@H]1c1ccccc1Br [Example I-291] |  |  |  |  |  |  | > 6.00 | > 6.00 | +++ (≥350) | 100 to 200%
5 | COc1ncc(C(F)(F)F)cc1CN[C@H]1[C@H](C(C)(C)C)[C@@H](C(=O)O)N(C(=O)OC(C)C)[C@H]1c1ccccc1 [II-425] | > 200% | 5.00 to 6.00 | +++ (≥350) | 5.00 to 6.00 |  |  |  |  |  | 
6 | COc1ccc(C(C)C)cc1CN[C@H]1[C@H](C(C)(C)C)[C@@H](C(=O)O)N(C(=O)C2CCCCC2)[C@H]1c1ccccc1F [Example I-111] |  | 5.00 to 6.00 |  | > 6.00 | +++ (≥350) | 100 to 200% |  |  |  | 
7 | COc1ccc(C(C)(C)C)cc1CN[C@H]1[C@H](C(C)(C)C)[C@@H](C(=O)O)N(C(=O)C(C)Oc2cccc(Cl)c2)[C@H]1c1ccccc1 (some centres unmarked) [II-330] | > 200% | 5.00 to 6.00 | +++ (≥350) | > 6.00 |  |  |  |  |  | 
8 | COc1ccc(C(C)(C)C)cc1CN[C@H]1[C@H](C(C)(C)C)[C@@H](C(=O)O)N(C(=O)O[C@H]2C[C@@H](C)CC[C@@H]2C(C)C)[C@H]1c1ccccc1 [II-386] | > 200% | > 6.00 | +++ (≥350) | > 6.00 |  |  |  |  |  | 
9 | COC(=O)N1CCC[C@H](C(=O)N2[C@H](c3ccccc3)[C@H](Nc3cc(C(F)(F)F)cc(C)n3)[C@@H](C(C)(C)C)[C@@H]2C(=O)O)C1 (racemic) [II-27] |  |  |  |  |  |  | 5.00 to 6.00 | 5.00 to 6.00 | +++ (≥350) | > 200%
10 | COc1ccc(C(F)(F)F)cc1CN[C@@H]1[C@@H](C(C)(C)C)[C@H](C(=O)O)N(C(=O)C2CCC(F)(F)CC2)[C@@H]1c1ccccc1 (racemic) [II-68] |  |  |  |  |  |  | 5.00 to 6.00 | 5.00 to 6.00 | +++ (≥350) | < 100%
11 | COc1ccc(C(F)(F)F)cc1CN[C@H]1[C@H](C(C)(C)C)[C@@H](C(=O)O)N(C(=O)[C@H](C)c2ccccc2)[C@H]1c1cccnc1OC [II-541] | 100 to 200% | 5.00 to 6.00 | +++ (≥350) | 5.00 to 6.00 |  |  |  |  |  | 
12 | COc1ncc(-c2ccc(F)cc2C)cc1CN[C@H]1[C@H](C(C)(C)C)[C@@H](C(=O)O)N(C(=O)C2CCCCC2)[C@H]1c1cccnc1N(C)C [II-409] | 100 to 200% | 5.00 to 6.00 | +++ (≥350) | > 6.00 |  |  |  |  |  | 

Other lines, results leading:

Row | Emax [1] | pEC50 [2] | Maximum % activity (with co-corrector) [3] | pEC50 [4] | Maximum % activity (with co-corrector) (with co-corrector (2 μM)) | Emax (without co-corrector) | pEC50 [5] | pEC50 [6] | Maximum % activity (with co-corrector) [7] | Emax (CSE-HRP, without co-corrector) | SMILES
13 | 100 to 200% | 5.00 to 6.00 | +++ (≥350) | > 6.00 |  |  |  |  |  |  | COc1nc(C(C)(C)C)ccc1CN[C@H]1[C@H](C(C)(C)C)[C@@H](C(=O)O)N(C(=O)OC(C)C)[C@H]1c1cccnc1OC(C)C [II-557]
14 |  | 5.00 to 6.00 |  | 5.00 to 6.00 | +++ (≥350) | > 200% |  |  |  |  | COc1ccc(C(C)(C)C)cc1CN[C@H]1[C@H](C(C)(C)C)[C@@H](C(=O)O)N(C(=O)[C@@H]2CCCN(C(=O)OC(C)C)C2)[C@H]1c1ccccc1 [Example I-246, (2S,3S,4S,5S)-3-tert-butyl-4-{[(5-tert-butyl-2-methoxyphenyl)methyl]amino}-5-phenyl-1-[(3R)-1-{[(propan-2-yl)oxy]carbonyl}piperidine-3-carbonyl]pyrrolidine-2-carboxylic acid]
15 | > 200% | 5.00 to 6.00 | +++ (≥350) | > 6.00 |  |  |  |  |  |  | COc1ccc(C(C)(C)C)cc1CN[C@H]1[C@H](C(C)(C)C)[C@@H](C(=O)O)N(C(=O)[C@@H](C)c2ccccc2)[C@H]1c1ccccc1 [II-326]
16 |  | 5.00 to 6.00 |  | 5.00 to 6.00 | +++ (≥350) | 100 to 200% |  |  |  |  | COc1ccc(C(C)(C)C)cc1CN[C@H]1[C@H](C(C)(C)C)[C@@H](C(=O)O)N(C(=O)c2cc3occc3n2C)[C@H]1c1ccccc1 [Example I-102]
17 | 100 to 200% | 5.00 to 6.00 | +++ (≥350) | 5.00 to 6.00 |  |  |  |  |  |  | COc1ncc(C2CCC2)cc1CN[C@H]1[C@H](C(C)(C)C)[C@@H](C(=O)O)N(C(=O)[C@@H]2CCCO2)[C@H]1c1cccnc1C1CC1 [II-588]
18 |  | > 6.00 |  | > 6.00 | +++ (≥350) | > 200% |  |  |  |  | COc1ccc(C(C)(C)C)cc1CN[C@H]1[C@H](C(C)(C)C)[C@@H](C(=O)O)N(C(=O)C2CCCCC2)[C@H]1c1ccccc1F [Example 24, (2S,3S,4S,5S)-3-tert-butyl-4-{[(5-tert-butyl-2-methoxyphenyl)methyl]amino}-1-(cyclohexanecarbonyl)-5-(2-fluorophenyl)pyrrolidine-2-carboxylic acid]
19 | < 100% | 5.00 to 6.00 | +++ (≥350) | 5.00 to 6.00 |  |  |  |  |  |  | COc1ccc(Cl)cc1CN[C@@H]1[C@@H](C(C)(C)C)[C@H](C(=O)O)N(C(=O)C2CCCCC2)[C@@H]1c1ccccn1 (racemic) [III-61]
20 |  |  |  |  |  |  | 5.00 to 6.00 | 5.00 to 6.00 | ++ (≥150 and <350) | < 100% | COc1ccc(CN[C@@H]2[C@@H](C(C)(C)C)[C@H](C(=O)O)N(C(=O)C3CCCCC3)[C@@H]2c2ccccc2)c(OC)c1Cl (racemic) [II-3]
21 |  |  |  |  |  |  | 5.00 to 6.00 | 5.00 to 6.00 | +++ (≥350) | > 200% | COc1ccc(C(C)(C)C)cc1CN[C@H]1[C@H](C(C)(C)C)[C@@H](C(=O)O)N(C(=O)CC2(O)CCCCC2)[C@H]1c1ccccc1 [II-210]
22 | 100 to 200% | 5.00 to 6.00 | +++ (≥350) | > 6.00 |  |  |  |  |  |  | COc1cc(C(F)(F)F)ccc1CN[C@@H]1[C@@H](C(C)(C)C)[C@H](C(=O)O)N(C(=O)C2CCCCC2)[C@@H]1c1ccccc1OC (stereo in doubt) [III-40]
23 |  | 5.00 to 6.00 |  | 5.00 to 6.00 | +++ (≥350) | 100 to 200% |  |  |  |  | COc1ccc(C(C)(C)C)cc1CN[C@H]1[C@H](C(C)(C)C)[C@@H](C(=O)O)N(C(=O)CC2CCCCO2)[C@H]1c1ccccc1 (stereo partly drawn) [Example 20, (2S,3S,4S,5S)-3-tert-butyl-4-{[(5-tert-butyl-2-methoxyphenyl)methyl]amino}-1-[(oxan-2-yl)acetyl]-5-phenylpyrrolidine-2-carboxylic acid]
